The subject of series [1] is Bacillus subtilis ATCC 6633. Nature of the series: "In vitro" MIC, Bacillus subtilis. The format is cell-based. Particulars: read-out: "In vitro" MIC. As to the method: (§1) Antimicrobial pharmacological activity (G. L. Daquet and Y. A. Chabbect, Techniques en bacteriologie (Techniques in bacteriology), vol. 3, Flammarion Medecine-Sciences, Paris, 1972, and W. B. Hugo and A. D. Rusell, Pharmaceutical Microbiology, Blackwell Scientific Publications, London (1977).
Bacillus subtilis ATCC 6633
(§2) A streak culture of each of the microorganisms is formed in tubes of antibiotics agar no. 1 and incubated for 20 hours at 37° C. A culture loop is then taken and a culture is formed in a tryptone-soya broth and incubated for 20 hours at 37° C. The resulting culture is diluted to 1/4 with Ringer's physiological solution to give a standardized suspension of 10^5 ufc/ml for each organism.
(§3) Starting from a solution of 1000 μg/ml in 0.1N NaOH, each product is diluted successively in dextrose agar (melted beforehand and kept at 50° C.) to give the following concentrations: 64-32-16-8-4-2-1-0.5-0.25-0.125 μg of derivative/ml of medium.
(§4) After this, each concentration of each product is divided up into Petri dishes of 10 cm diameter at a rate of 10 ml of medium per dish and using as many dishes as there are microorganisms to be tested.
(§5) Once the medium has cooled, the dishes are treated with the inoculations at a rate of 0.4 ml of inoculation per dish. They are spread out with a Drigalski loop and the supernatant is collected. The inoculated dishes are incubated at 37° C. for 20 hours.

For series [2], the system named is Streptococcus faecalis ATCC 10541. Nature of the series: "In vitro" MIC, Streptococcus faecalis. It counts as cell-based. The conditions noted are these: Enterococcus faecalis, read-out: "In vitro" MIC. On the procedure: as §1
Streptococcus faecalis ATCC 10541
as §2, §3, §4, §5

The test system of series [3] is Enterobacter cloacae CHSP-20. Nature of the series: "In vitro" MIC, Enterobacter cloacae. The format is cell-based. The conditions noted are these: read-out: "In vitro" MIC. As to the method: as §1
Enterobacter cloacae CHSP-20
as §2, §3, §4, §5

The test system of series [4] is Escherichia coli ATCC 10536. Nature of the series: "In vitro" MIC, Escherichia coli ATCC 10536. The format is cell-based. Particulars: read-out: "In vitro" MIC. On the procedure: as §1
Escherichia coli ATCC 10536
as §2, §3, §4, §5

The next series relates to Escherichia coli R-1513. Nature of the series: "In vitro" MIC, Escherichia coli R-1513. It counts as cell-based. The conditions noted are these: read-out: "In vitro" MIC. On the procedure: as §1, §2, §3, §4, §5
Series [5] relates to Proteus mirabilis ATCC 4675. Nature of the series: "In vitro" MIC, Proteus mirabilis. The format is cell-based. Particulars: read-out: "In vitro" MIC. As to the method:
as §1
Proteus mirabilis ATCC 4675
as §2, §3, §4, §5

Another series deals with Shigella flexnerii. Nature of the series: "In vitro" MIC, Shigella flexnerii. It counts as cell-based. The conditions noted are these: 20 h, read-out: "In vitro" MIC. On the procedure:
as §1, §2, §3, §4, §5

A further series deals with Gram-positive cocci. Nature of the series: "In vitro" antimicrobial activity compared with nalidixic acid, Gram-positive cocci. The format is cell-based. On the procedure:
as §1, §2, §3, §4, §5

The next series has as its system Proteus morganii CHSP-16. Nature of the series: "In vitro" MIC, Proteus morganii. It counts as cell-based. The conditions noted are these: Morganella morganii, read-out: "In vitro" MIC. As to the method:
as §1, §2, §3, §4, §5

The test system of series [6] is Enterobacter aerogenes ATCC 15038. Nature of the series: "In vitro" MIC, Enterobacter aerogenes. It counts as cell-based. The conditions noted are these: Klebsiella aerogenes, read-out: "In vitro" MIC. On the procedure:
as §1
Enterobacter aerogenes ATCC 15038
as §2, §3, §4, §5

Series [7] has as its system Pseudomonas aeruginosa ADSA 47. Nature of the series: "In vitro" MIC, Pseudomonas aeruginosa ADSA 47. The format is cell-based. Particulars: read-out: "In vitro" MIC. On the procedure:
as §1
Pseudomonas aeruginosa ADSA 47
as §2, §3, §4, §5

Another series deals with Sarcina lutea ATCC 9341. Nature of the series: "In vitro" MIC, Sarcina lutea. It counts as cell-based. The conditions noted are these: Micrococcus luteus, read-out: "In vitro" MIC. As to the method:
as §1, §2, §3, §4, §5

Series [8] relates to Enterobacteriaceae (Pseudomonas aeruginosa). Nature of the series: "In vitro" antimicrobial activity compared with nalidixic acid, Enterobacteriaceae (Pseudomonas aeruginosa). It counts as cell-based. As to the method: as §1, §2, §3, §4, §5
The test system of series [9] is Micrococcus flavus ATCC 10240. Nature of the series: "In vitro" MIC, Micrococcus flavus. The conditions noted are these: read-out: "In vitro" MIC. The format is cell-based. As to the method: as §1
Micrococcus flavus ATTC 10240
as §2, §3, §4, §5

The subject of series [10] is Salmonella typhimurium AMES 98. Nature of the series: "In vitro" MIC, Salmonella typhimurium AMES 98. It counts as cell-based. The conditions noted are these: Salmonella enterica, read-out: "In vitro" MIC. On the procedure:
as §1
Salmonella typhimurium AMES 98
as §2, §3, §4, §5

For series [11], the system named is Klebsiella pneumoniae ATCC 10031. Nature of the series: "In vitro" MIC, Klebsiella pneumoniae. It counts as cell-based. The conditions noted are these: read-out: "In vitro" MIC. As to the method:
as §1
Klebsiella pneumoniae ATCC 10031
as §2, §3, §4, §5

For series [12], the system named is Pseudomonas aeruginosa 25115. Nature of the series: "In vitro" MIC, Pseudomonas aeruginosa 25115. The format is cell-based. The conditions noted are these: read-out: "In vitro" MIC. On the procedure:
as §1
Pseudomonas aeruginosa 25115
as §2, §3, §4, §5

Series [13] concerns Salmonella typhimurium AMES 100. Nature of the series: "In vitro" MIC, Salmonella typhimurium AMES 100. It counts as cell-based. Particulars: Salmonella enterica, read-out: "In vitro" MIC. On the procedure:
as §1
Salmonella typhimurium AMES 100
as §2, §3, §4, §5

Another series is described as follows: Acute toxicity to mice. Particulars: mouse, in vivo, ip, suspension in 5% gum arabic, mortality over 7 days. As to the method:
The experimental animals used to determine this toxicity were albino mice of the C.F.L.P. strain and of both sexes, weighing between 19 and 25 grams. After an 18-hour fasting period with water "ad libitum", the derivatives forming the subject of the present invention are administered intraperitoneally as a suspension in 5% gum arabic. The volume of suspension administered was 0.4 ml/20 grams (20 ml/kg) in all cases, the concentration of the suspension being changed according to the dose administered.
One hour after administration of the derivatives, the animals are given a standard Panlab rat-mouse food. The mortality was observed over a period of 7 days. Differences in mortality between the sexes were not observed with any of the products.

Series [14] has as its system Staphylococcus aureus ATCC 25178. Nature of the series: "In vitro" MIC, Staphylococcus aureus ATCC 25178. The format is cell-based. The conditions noted are these: read-out: "In vitro" MIC. On the procedure: as §1
Staphylococcus aureus ATCC 25178
as §2, §3, §4, §5

Series [15] deals with Staphylococcus aureus ATCC 5488/23. Nature of the series: "In vitro" MIC, Staphylococcus aureus ATCC 5488/23. The format is cell-based. Particulars: read-out: "In vitro" MIC. On the procedure: as §1
Staphylococcus aureus ATCC 5488/23
as §2, §3, §4, §5

For series [16], the system named is Serratia marcescens ATTC 13880. Nature of the series: "In vitro" MIC, Serratia marcescens. The format is cell-based. Particulars: read-out: "In vitro" MIC. On the procedure: as §1
Serratia marcescens ATTC 13880
as §2, §3, §4, §5

Series [17] concerns Citrobacter freundii ATCC 11606. Nature of the series: "In vitro" MIC, Citrobacter freundii. Particulars: read-out: "In vitro" MIC. It counts as cell-based. On the procedure: as §1
Citrobacter freundii ATCC 11606
as §2, §3, §4, §5

In brackets after ≈: the same amount, converted by molar mass. Read-outs that look alike come from different tables or passages of the source.

Turning to `C=Cn1cc(C(=O)O)c(=O)c2cc(F)c(-n3cccc3)cc21` [Example 3, 6-fluoro-7-(pyrrol-1-yl)-1-vinyl-4-oxo-1,4-dihydroquinoline-3-carboxylic acid], the minimal inhibitory concentration (MIC) was at most 0.062 µg/mL in [1] (ATCC6633, Bacillus subtilis ATCC 6633, dextrose agar, 37° C., 20 hours); 16 µg/mL (≈ 53.6 µM) in series [2] (ATCC10541, Streptococcus faecalis ATCC 10541, dextrose agar, 37° C., 20 hours); 1 µg/mL (≈ 3.35 µM) in series [3] (CHSP20, Enterobacter cloacae CHSP-20, dextrose agar, 37° C., 20 hours); 0.125 µg/mL (≈ 0.419 µM) in series [4] (ATCC10536, Escherichia coli ATCC 10536, dextrose agar, 37° C., 20 hours); 1 µg/mL (≈ 3.35 µM) in the series on Escherichia coli R-1513 (R1513, Escherichia coli R-1513, dextrose agar, 37° C., 20 hours); 2 µg/mL (≈ 6.71 µM) in [5] (ATCC4675, Proteus mirabilis ATCC 4675, dextrose agar, 37° C., 20 hours). The MIC with Shigella flexnerii worked out at 1 µg/mL (≈ 3.35 µM); in the series on Proteus morganii CHSP-16 (CHSP16, Proteus morganii CHSP-16, dextrose agar, 37° C., 20 hours), 2 µg/mL (≈ 6.71 µM); in [6] (ATCC15038, Enterobacter aerogenes ATCC 15038, dextrose agar, 37° C., 20 hours) it was 1 µg/mL (≈ 3.35 µM); in series [7] (ADSA47, Pseudomonas aeruginosa ADSA 47, dextrose agar, 37° C., 20 hours), 8 µg/mL (≈ 26.8 µM); in the series with Sarcina lutea ATCC 9341 (ATCC9341, Sarcina lutea ATCC 9341, dextrose agar, 37° C., 20 hours) it was 8 µg/mL (≈ 26.8 µM); in [9] (ATCC10240, Micrococcus flavus ATCC 10240, dextrose agar, 37° C., 20 hours), 4 µg/mL (≈ 13.4 µM). Besides, the MIC is at most 0.062 µg/mL in [10] (Salmonella typhimurium AMES 98, dextrose agar, 37° C., 20 hours); 0.5 µg/mL (≈ 1.68 µM) in series [11] (ATCC10031, Klebsiella pneumoniae ATCC 10031, dextrose agar, 37° C., 20 hours); 4 µg/mL (≈ 13.4 µM) in series [12] (Pseudomonas aeruginosa 25115, dextrose agar, 37° C., 20 hours); 0.5 µg/mL (≈ 1.68 µM) in [13] (Salmonella typhimurium AMES 100, dextrose agar, 37° C., 20 hours); 0.5 µg/mL (≈ 1.68 µM) in [14] (ATCC25178, Staphylococcus aureus ATCC 25178, dextrose agar, 37° C., 20 hours); 0.5 µg/mL (≈ 1.68 µM) in [15] (ATCC5488, Staphylococcus aureus ATCC 5488/23, dextrose agar, 37° C., 20 hours). The MIC in series [16] (ATTC13880, Serratia marcescens ATTC 13880, dextrose agar, 37° C., 20 hours) was 1 µg/mL (≈ 3.35 µM); in [17] (ATCC11606, Citrobacter freundii ATCC 11606, dextrose agar, 37° C., 20 hours) it was 1 µg/mL (≈ 3.35 µM). The “"in vitro" activity compared with nalidixic acid” value (in the series on Gram-positive cocci; in [8]) was “greater "in vitro" activity than nalidixic acid” throughout. In the series “Acute toxicity to mice”, the LD50 at 168 h was over 1600 mg/kg.
Consider `CCn1cc(C(=O)O)c(=O)c2ccc(C)nc21` [Nalidixic acid, reference compound], for which the minimal inhibitory concentration (MIC) in [1] (Bacillus subtilis, ATCC6633, 20 h) was 1 µg/mL (≈ 4.31 µM); in [2] (ATCC10541, 20 h), at least 64 µg/mL; in [3] (Enterobacter cloacae, CHSP20, 20 h), 4 µg/mL (≈ 17.2 µM); in series [4] (Escherichia coli, ATCC10536, 20 h) it was 0.25 µg/mL (≈ 1.08 µM); in the series with Escherichia coli R-1513 (Escherichia coli, R1513, 20 h), 4 µg/mL (≈ 17.2 µM); in series [5] (Proteus mirabilis, ATCC4675, 20 h), 8 µg/mL (≈ 34.4 µM). The MIC was 2 µg/mL (≈ 8.61 µM) in the series on Shigella flexnerii; 1 µg/mL (≈ 4.31 µM) in the series on Proteus morganii CHSP-16 (CHSP16, 20 h); 4 µg/mL (≈ 17.2 µM) in [6] (ATCC15038, 20 h); at least 128 µg/mL in series [7] (Pseudomonas aeruginosa, ADSA47, 20 h); 128 µg/mL (≈ 551 µM) with Sarcina lutea ATCC 9341 (ATCC9341, 20 h); 128 µg/mL (≈ 551 µM) in series [9] (Micrococcus flavus, ATCC10240, 20 h). Further, the MIC was 0.5 µg/mL (≈ 2.15 µM) in [10] (TYPHIMURIUM, 20 h); 1 µg/mL (≈ 4.31 µM) in series [11] (Klebsiella pneumoniae, ATCC10031, 20 h); at least 128 µg/mL in series [12] (Pseudomonas aeruginosa, 25115, 20 h); 0.5 µg/mL (≈ 2.15 µM) in series [13] (TYPHIMURIUM, 20 h); at least 64 µg/mL in [14] (Staphylococcus aureus, ATCC25178, 20 h); 32 µg/mL (≈ 138 µM) in series [15] (Staphylococcus aureus, ATCC5488, 20 h). Besides, the MIC in series [16] (Serratia marcescens, ATTC13880, 20 h) was determined as 1 µg/mL (≈ 4.31 µM); in series [17] (Citrobacter freundii, ATCC11606, 20 h), 4 µg/mL (≈ 17.2 µM).

In general, MIC refers to the lowest concentration that inhibits growth of the organism. In general, LD50 refers to the dose at which mortality reaches 50%.

(Values after patent US4727080A, “1-substituted derivatives of 6-fluoro-7-(pyrrol-1-yl)-1,4-dihydro-4-oxoquinoline-3-carboxylic acid, their preparation and their application as drugs” (Provesan S.A., priority 1984, dated 1988).)
